Test results: publication PMC10957983, “The binding and mechanism of a positive allosteric modulator of Kv3 channels” (Nature Communications, 2024)

What was measured:
Kv3.2 = biological target: T1, Kv3.2 (Homo sapiens, UniProt Q96PR1); assay: TEVC in Xenopus oocytes, concentration dependence of ΔV0.[…]; assay type: cell-based
T1 construct: gene KCNC2
T1 sequence (Q96PR1 1-638): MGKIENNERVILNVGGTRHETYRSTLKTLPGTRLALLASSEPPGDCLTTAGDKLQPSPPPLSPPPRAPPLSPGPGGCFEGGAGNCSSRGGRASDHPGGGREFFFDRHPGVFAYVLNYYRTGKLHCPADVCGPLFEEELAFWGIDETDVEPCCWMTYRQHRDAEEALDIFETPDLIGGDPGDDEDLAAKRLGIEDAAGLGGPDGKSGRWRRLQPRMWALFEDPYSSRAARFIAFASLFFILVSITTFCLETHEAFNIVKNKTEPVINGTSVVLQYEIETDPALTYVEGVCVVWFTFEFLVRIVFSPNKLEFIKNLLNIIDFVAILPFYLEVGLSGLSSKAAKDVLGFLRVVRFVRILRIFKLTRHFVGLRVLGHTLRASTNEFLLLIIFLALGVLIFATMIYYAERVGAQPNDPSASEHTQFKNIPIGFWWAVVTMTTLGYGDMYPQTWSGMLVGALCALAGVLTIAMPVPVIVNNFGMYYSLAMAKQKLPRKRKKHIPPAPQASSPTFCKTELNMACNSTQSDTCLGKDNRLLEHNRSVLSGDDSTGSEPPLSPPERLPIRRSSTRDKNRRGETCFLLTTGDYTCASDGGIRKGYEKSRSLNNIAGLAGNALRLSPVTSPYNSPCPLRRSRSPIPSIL

Kv3.1 = biological target: T2, Kv3.1 (Homo sapiens, UniProt P48547); assay: cryo-EM structure of the complex ([…] Å); supported by TEVC of Kv3.[…] and binding-site mutants
T2 construct: gene KCNC1; Full-length human Kv3.1 (isoform A)
T2 sequence (P48547 1-511): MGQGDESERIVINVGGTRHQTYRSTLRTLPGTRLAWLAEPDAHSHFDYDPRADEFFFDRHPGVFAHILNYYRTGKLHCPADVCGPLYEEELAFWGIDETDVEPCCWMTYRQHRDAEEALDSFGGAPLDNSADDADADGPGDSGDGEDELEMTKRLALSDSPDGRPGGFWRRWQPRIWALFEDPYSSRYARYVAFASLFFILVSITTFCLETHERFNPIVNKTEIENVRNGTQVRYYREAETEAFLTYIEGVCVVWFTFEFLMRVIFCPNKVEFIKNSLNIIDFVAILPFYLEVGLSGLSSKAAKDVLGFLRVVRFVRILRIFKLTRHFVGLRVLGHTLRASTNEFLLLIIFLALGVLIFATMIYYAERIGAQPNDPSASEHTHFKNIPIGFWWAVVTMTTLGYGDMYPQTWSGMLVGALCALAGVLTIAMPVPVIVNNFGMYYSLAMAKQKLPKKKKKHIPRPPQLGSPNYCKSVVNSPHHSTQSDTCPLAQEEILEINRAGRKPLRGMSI

In the case of `CC[C@H]1NC(=O)N(c2ccc(Oc3cccc4c3C3(CC3)CO4)nc2)C1=O` [AUT5, (5 R)-5-ethyl-3-[6-(spiro[1-benzofuran-3,1’-cyclopropan]-4-yloxy)-3-pyridinyl]-2,4-imidazolidinedione], the EC50 (Kv3.2) is reported as 3.2 µM and the “cryo-EM structure of the complex (2.5 Å); supported by TEVC of Kv3.1 and binding” value (Kv3.1) is reported as “A non-protein in the electron density map consistent with AUT5 is found in a cavity between S4 and S5 helices”.
